target: T1, ERα (Homo sapiens, UniProt P03372); experiment: ERα CALUX reporter gene assay; format: cell-based; set-up: key: –: no effect observed up to the highest test concentration; settings: PC10, 24 h exposure
T1 construct: expression construct for the full-length human receptor under investigation; expressed in transfected cells; host or cells: human U2-OS cells (ATCC HTB-96), stably transfected
T1 sequence (P03372 1-595): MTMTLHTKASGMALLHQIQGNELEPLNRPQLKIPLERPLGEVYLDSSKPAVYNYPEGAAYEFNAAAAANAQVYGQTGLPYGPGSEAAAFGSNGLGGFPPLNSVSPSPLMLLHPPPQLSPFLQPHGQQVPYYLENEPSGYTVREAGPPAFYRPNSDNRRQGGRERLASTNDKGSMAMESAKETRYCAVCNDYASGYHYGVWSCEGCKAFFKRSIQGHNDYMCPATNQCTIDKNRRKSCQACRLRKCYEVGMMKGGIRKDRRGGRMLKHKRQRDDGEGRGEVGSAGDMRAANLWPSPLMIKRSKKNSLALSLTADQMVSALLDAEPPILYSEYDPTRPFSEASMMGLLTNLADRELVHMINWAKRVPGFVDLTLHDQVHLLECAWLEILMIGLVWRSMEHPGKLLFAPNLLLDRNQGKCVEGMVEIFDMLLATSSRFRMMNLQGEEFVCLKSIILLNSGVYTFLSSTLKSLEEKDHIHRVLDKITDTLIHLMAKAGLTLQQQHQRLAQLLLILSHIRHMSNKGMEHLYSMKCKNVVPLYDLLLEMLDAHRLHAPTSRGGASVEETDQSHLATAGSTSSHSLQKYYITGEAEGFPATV
Description: Toluene ≥99.0%, hexane ≥99.5%,
DCM ≥99.5%, chloroform ≥99.5%, DMSO ≥99.0% were purchased from VWR. N,N-diethyl-4-nitroaniline ≥98.0% was purchased from Alfa Aeser. Cyrene was supplied by Circa group. N-butylpyrrolidinone was supplied by Eastman chemicals. N,N-dimethylformamide 99.9% and N,N-dimethylacetamide 99.9% were purchased from Fischer. The flakes of Ultrason® E3020 P Polyarylethersulfone of 55,000 Da were obtained from INGE.BASF, Germany. The CALUX cell lines have been described previously.[1] They are based on human U2-OS cells (ATCC, HTB-96) stably transfected with an expression construct for the full-length human receptor under investigation, and a reporter construct consisting of multimerized responsive elements for the cognate receptor coupled to a minimal promoter element (TATA) and a luciferase gene. Cells were maintained as described previously,[2] using cell culture media and supplements from Fisher Scientific as described in the experimental procedures section. […]
In vitro reporter gene assays
The automated CALUX assays were carried out similarly as described earlier,[12] with some adaptations. In brief, the assay was performed in CO2 independent medium (Fisher Scientific, […]
supplement (Fisher Scientific, 11574466), 10 U/mL penicillin and 10 µg/mL streptomycin. A cell suspension in assay medium was made of 1 × 10^5cells/mL, and white 384-wells plates were seeded with 30 µl cell suspension/well. After 24 h, exposure medium was prepared. A dilution series in 0.5log unit increments of each test compound (in DMSO) was added to a 96-wells plate containing assay medium (2% v/v). Of this exposure mixture, 30 µl was added to the assay plates containing the CALUX cells, resulting in a final DMSO concentration of 1%. Additionally, DMSO blanks and a full dose response curve of the relevant reference compound were included on each plate. All samples were tested in triplicate. The preparation of the compound dilution series as well as the exposure of the cells were performed on a Hamilton StarLET liquid handling robot coupled to a Cytomat incubator.
Directly after exposure, plates were sealed with non-breathing plate seals (Plate sealer, easy seal transparent; Greiner-Bio-One, 676001). After 24 h the exposure medium was removed using an EL406 washer-dispenser (BioTek) and 10 µl/well triton lysisbuffer was added by the EL406.
Subsequently, the luciferase signal was measured in a luminometer (InfinitePro coupled to a Connect Stacker, both TECAN). In order to be able to detect receptor antagonism, several assays were also performed in antagonistic mode. The assay procedure was as described above, with the only exception that the EC50 concentration of the reference agonist was present during the exposure.
The luminometer data was analysed as follows; the average of the triplicate wells was determined, and the average blank (DMSO) value was subtracted. For receptor-based assays the maximum response elicited by the reference compound was set to 100% (full receptor- or pathway activation), and the other values were scaled accordingly. […] For antagonist- and cytotoxicity experiments, PC20 values were determined instead, which was defined as the concentration where the test compound causes a 20% decrease in the basal signal, which was […]
curve, the signal induction above background (DMSO) was determined, and the concentration where the compound elicited a 1.5-fold increase above background was used as LEC.

Row | SMILES | LEC ERα
1 | CCCCN(C)C(=O)CCC(=O)N(C)CCCC [MBSA, N,N′‐dimethyl‐N,N′‐dibutylsuccindiamide] | –
2 | CCCCN1CCCC1=O [NBP, N‐Butylpyrrolidinone, reference compound] | –
3 | CN1CCCC1=O [NMP, N‐methyl‐2‐pyrrolidone, reference compound] | –

The next lines start with the values.

Row | LEC ERα | SMILES
4 | – | CCCCN(CC)C(=O)CCC(=O)N(CC)CCCC [EBSA, N,N′‐diethyl‐N,N′‐dibutylsuccindiamide]
5 | – | CCCCN(CCCC)C(=O)CCC(=O)N(CCCC)CCCC [TBSA, N,N,N′,N′‐tetrabutylsuccindiamide]

From paper PMC7318222, “A Family of Water‐Immiscible, Dipolar Aprotic, Diamide Solvents from Succinic Acid” (Chemsuschem, 2020)
